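Test compounds were applied to cells in 96-well plates for 48 hours at 5 doses. Abbreviation: GI50, concentration required for 50% inhibition of growth.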 The source made the active and inactive calls. No stated cut-off is given here; in the data, active = GI50 up to about 1.1 µM and inactive = higher.
Experiments:
Assay in all cases: NCI-60 cell line screen, 48 h
786-0 = system: 786-0
A498 = system: A498
A549 = system: A549
ACHN = system: ACHN
BT-549 = system: BT-549
CAKI-1 = system: CAKI-1
CCRF-CEM = system: CCRF-CEM
COLO 205 = system: COLO 205
DU-145 = system: DU-145
EKVX = system: EKVX
HCT-116 = system: HCT-116
HCT-15 = system: HCT-15
HL-60 = system: HL-60
HOP-62 = system: HOP-62
HOP-92 = system: HOP-92
HT-29 = system: HT-29
Hs-578T = system: Hs-578T
IGROV-1 = system: IGROV-1
K562 = system: K562
KM12 = system: KM12
LOX IMVI = system: LOX IMVI
M14 = system: M14
MCF7 = system: MCF7
MDA-MB-231 = system: MDA-MB-231
MDA-MB-435 = system: MDA-MB-435
MDA-N = system: MDA-N
MOLT-4 = system: MOLT-4
Malme-3M = system: Malme-3M
NCI-H226 = system: NCI-H226
NCI-H23 = system: NCI-H23
NCI-H460 = system: NCI-H460
NCI-H522 = system: NCI-H522
NCI/ADR-RES = system: NCI/ADR-RES
OVCAR-3 = system: OVCAR-3
OVCAR-4 = system: OVCAR-4
OVCAR-5 = system: OVCAR-5
OVCAR-8 = system: OVCAR-8
PC-3 = system: PC-3
RPMI-8226 = system: RPMI-8226
RXF 393 = system: RXF 393
SF-268 = system: SF-268
SF-295 = system: SF-295
SF-539 = system: SF-539
SK-MEL-28 = system: SK-MEL-28
SK-MEL-2 = system: SK-MEL-2
SK-MEL-5 = system: SK-MEL-5
SK-OV-3 = system: SK-OV-3
SN12C = system: SN12C
SNB-19 = system: SNB-19
SNB-75 = system: SNB-75
SR = system: SR
SW-620 = system: SW-620
T47D = system: T47D
TK-10 = system: TK-10
U-251 = system: U-251
UACC-257 = system: UACC-257
UACC-62 = system: UACC-62
UO-31 = system: UO-31

Q: Which results are given for `Cc1ccc(N)cc1.O=S(=O)(O)/C(=C\c1ccccc1)c1ccccc1`?
A: GI50 (786-0): > 100 µM (inactive); GI50 (A498): > 100 µM (inactive); GI50 (A549): > 100 µM (inactive); GI50 (ACHN): > 100 µM (inactive); GI50 (BT-549): > 100 µM (inactive); GI50 (CAKI-1): > 100 µM (inactive); GI50 (CCRF-CEM): > 100 µM (inactive); GI50 (COLO 205): > 100 µM (inactive); GI50 (DU-145): > 100 µM (inactive); GI50 (EKVX): > 100 µM (inactive); GI50 (HCT-116): > 100 µM (inactive); GI50 (HCT-15): > 100 µM; GI50 (HL-60): 53.2 µM (inactive); GI50 (HOP-62): > 100 µM (inactive); GI50 (HOP-92): > 100 µM (inactive); GI50 (HT-29): > 100 µM (inactive); GI50 (Hs-578T): > 100 µM (inactive); GI50 (IGROV-1): > 100 µM (inactive); GI50 (K562): > 100 µM (inactive); GI50 (KM12): 71.8 µM (inactive); GI50 (LOX IMVI): > 100 µM (inactive); GI50 (M14): > 100 µM (inactive); GI50 (MCF7): > 100 µM (inactive); GI50 (MDA-MB-231): > 100 µM (inactive); GI50 (MDA-MB-435): > 100 µM (inactive); GI50 (MDA-N): > 100 µM (inactive); GI50 (MOLT-4): > 100 µM (inactive); GI50 (Malme-3M): > 100 µM (inactive); GI50 (NCI-H226): > 100 µM (inactive); GI50 (NCI-H23): > 100 µM (inactive); GI50 (NCI-H460): > 100 µM (inactive); GI50 (NCI-H522): > 100 µM (inactive); GI50 (NCI/ADR-RES): > 100 µM (inactive); GI50 (OVCAR-3): > 100 µM (inactive); GI50 (OVCAR-4): > 100 µM (inactive); GI50 (OVCAR-5): > 100 µM (inactive); GI50 (OVCAR-8): > 100 µM (inactive); GI50 (PC-3): > 100 µM (inactive); GI50 (RPMI-8226): > 100 µM (inactive); GI50 (RXF 393): > 100 µM (inactive); GI50 (SF-268): > 100 µM (inactive); GI50 (SF-295): > 100 µM (inactive); GI50 (SF-539): > 100 µM (inactive); GI50 (SK-MEL-28): > 100 µM (inactive); GI50 (SK-MEL-2): > 100 µM (inactive); GI50 (SK-MEL-5): 93.3 µM (inactive); GI50 (SK-OV-3): > 100 µM (inactive); GI50 (SN12C): > 100 µM (inactive); GI50 (SNB-19): > 100 µM (inactive); GI50 (SNB-75): > 100 µM (inactive); GI50 (SR): > 100 µM (inactive); GI50 (SW-620): > 100 µM (inactive); GI50 (T47D): > 100 µM (inactive); GI50 (TK-10): > 100 µM (inactive); GI50 (U-251): > 100 µM (inactive); GI50 (UACC-257): > 100 µM (inactive); GI50 (UACC-62): 44 µM (inactive); GI50 (UO-31): 70.6 µM (inactive)

Q: Which results are given for `C1=N\c2ccc(cc2)/N=C\c2ccc(cc2)OCc2cccc(n2)COc2ccc/1cc2`?
A: GI50 (786-0): > 100 µM (inactive); GI50 (A498): > 100 µM (inactive); GI50 (A549): > 100 µM (inactive); GI50 (ACHN): > 100 µM (inactive); GI50 (BT-549): > 100 µM (inactive); GI50 (CAKI-1): > 100 µM (inactive); GI50 (CCRF-CEM): > 100 µM (inactive); GI50 (COLO 205): > 100 µM (inactive); GI50 (DU-145): > 100 µM (inactive); GI50 (EKVX): > 100 µM (inactive); GI50 (HCT-116): > 100 µM (inactive); GI50 (HCT-15): > 100 µM; GI50 (HL-60): > 100 µM (inactive); GI50 (HOP-62): > 100 µM (inactive); GI50 (HOP-92): > 100 µM (inactive); GI50 (HT-29): > 100 µM (inactive); GI50 (Hs-578T): > 100 µM (inactive); GI50 (IGROV-1): > 100 µM (inactive); GI50 (K562): > 100 µM (inactive); GI50 (KM12): > 100 µM (inactive); GI50 (M14): > 100 µM (inactive); GI50 (MCF7): > 100 µM (inactive); GI50 (MDA-MB-231): > 100 µM (inactive); GI50 (MDA-MB-435): > 100 µM (inactive); GI50 (MDA-N): > 100 µM (inactive); GI50 (MOLT-4): > 100 µM (inactive); GI50 (Malme-3M): > 100 µM (inactive); GI50 (NCI-H226): > 100 µM (inactive); GI50 (NCI-H23): > 100 µM (inactive); GI50 (NCI-H460): > 100 µM (inactive); GI50 (NCI-H522): > 100 µM (inactive); GI50 (NCI/ADR-RES): > 100 µM (inactive); GI50 (OVCAR-3): > 100 µM (inactive); GI50 (OVCAR-4): > 100 µM (inactive); GI50 (OVCAR-5): > 100 µM (inactive); GI50 (OVCAR-8): > 100 µM (inactive); GI50 (PC-3): > 100 µM (inactive); GI50 (RPMI-8226): > 100 µM (inactive); GI50 (RXF 393): > 100 µM (inactive); GI50 (SF-268): > 100 µM (inactive); GI50 (SF-295): > 100 µM (inactive); GI50 (SF-539): > 100 µM (inactive); GI50 (SK-MEL-28): > 100 µM (inactive); GI50 (SK-MEL-2): > 100 µM (inactive); GI50 (SK-MEL-5): > 100 µM (inactive); GI50 (SK-OV-3): > 100 µM (inactive); GI50 (SN12C): > 100 µM (inactive); GI50 (SNB-19): > 100 µM (inactive); GI50 (SNB-75): > 100 µM (inactive); GI50 (SR): > 100 µM (inactive); GI50 (SW-620): > 100 µM (inactive); GI50 (T47D): > 100 µM (inactive); GI50 (U-251): > 100 µM (inactive); GI50 (UACC-257): > 100 µM (inactive); GI50 (UACC-62): > 100 µM (inactive); GI50 (UO-31): > 100 µM (inactive)
